The results in this text go back to US20250195590A1, “PHAGE AND ALLICIN COMPOSITION FOR INFECTION TREATMENT” (GUANGZHOU MEDICAL UNIVERSITY, priority 2023, published 2025).

The subject of assay [1] is Pseudomonas aeruginosa host bacteria. The assay can be described thus: Drug resistance of host bacteria. In kind it is cell-based.
The test system of assay [2] is Pseudomonas aeruginosa. Kind of assay: Measurement of the minimum inhibitory concentration (micro broth dilution method). It is filed as cell-based. Particulars: allicin alone, preliminary experiment, FIG. 1. The procedure:
(§1) The allicin is diluted to 7.5 mg/mL, 3.75 mg/mL, 0.375 mg/mL, 0.0375 mg/mL, 0.00375 mg/mL and 0.000375 mg/mL respectively, and the phage is diluted to 3×10^4 pfu/mL, 3×10^3 pfu/mL, 3×10^2 pfu/ml, and 3×10^1 pfu/ml respectively, and the host bacteria are diluted to 3×10^5 cfu/mL; allicin, phage, and host bacteria are aspirated 50 μL each and added into each well of the 96-well plate, then the OD600 value is measured, the OD600 value is measured again after overnight shaker incubation at 37° C. and 220 rpm, and the absorbance change value is calculated to determine the inhibition effect on the bacteria.
After the experiment, the experimental results are shown in FIG. 2, and the MIC of phage is 1×10^3 pfu/mL.
A general note: In broth dilution the organism is exposed to a series of concentrations in liquid medium.

The subject of assay [3] is Pseudomonas aeruginosa. The assay can be described thus: Bacteriostasis effect of phage in combination with allicin (combination experiment, OD600, FIC index). In kind it is cell-based. The procedure: as §1
In the combination experiment, the bacteriostatic effect of allicin in different concentrations (i.e. allicin alone) is calculated and analyzed when the phage concentration is 0 pfu/mL.
In the combination experiment, the bacteriostatic effect of phages with different concentrations (that is, phages alone) is calculated and analyzed when the concentration of allicin is 0 μg/mL.
Different concentrations of allicin and phage are mixed in a 96-well plate by broth dilution method, and the OD600 value is measured. After overnight shaking table culture at 37° C. and 220 rpm, the OD600 value is measured again, and the chart is drawn.
Judging the combination effect according to the fractional inhibitory concentration (FIC) index^[6]: FIC=MIC (in combination with group A)/MIC (group A used alone)+MIC (in combination with group B)/MIC (group B used alone).
FIC index interpretation criteria: when the FIC index is less than 0.5, the two drugs are synergistic; when the FIC index is 0.5-1, the two drugs are mutually additive; when the FIC index is greater than 1 and less than 2, the two drugs are unrelated; when the FIC index is greater than 2, the two drugs are antagonistic.

In assay [4] the test system is Pseudomonas aeruginosa phage vB_PaeP_GZMU_A1002. Kind of assay: Effect of allicin on phage potency. As to conditions: incubated 37° C. 3 h, paired sample T test, 0.05 level, FIG. 3. The procedure:
The solution of Pseudomonas aeruginosa phage vB_PaeP_GZMU_A1002 is diluted to a certain extent, and 100 μL of the diluted phage is mixed with 100 μL of the host bacteria and incubated at 37° C. for 15 min. The incubation solution is mixed with 0.7% semisolid LB agar, spread evenly on top of 1.5% solid LB agar spread on a Petri dish in advance, and cultured in a constant temperature incubator at 37° C. for 8 h or overnight. After the culture, a number of light-transmitting plaques may be seen in the Petri dish. A number of light-transmissive phage spots are visible in the petri dish after incubation, and the optimal view is selected to have 30-300 phage spots in the field of view, and the potency is calculated as potency=(10×number of phage spots)/dilution.
The Pseudomonas aeruginosa phage vB_PaeP_GZMU_A1002 is diluted to 10-8, and 100 μL of phage is mixed with 100 μL of allicin. At the same time, 100 μL of phage is mixed with 100 μL of LB as the control group, which is repeated in parallel for three times, mixed and incubated at 37° C. for 3 h, and then the potency is measured.
In this embodiment, paired sample T test is used to determine whether allicin has an effect on phage titer.

Converted amounts (≈) assume the structure as drawn.

Consider `NC[C@H]1O[C@H](O[C@H]2[C@H](O)[C@@H](O[C@H]3O[C@H](CO)[C@@H](O)[C@H](N)[C@H]3O)[C@H](N)C[C@@H]2N)[C@H](N)C[C@@H]1O` [Tobramycin], for which the “Drug resistance of host bacteria” value in assay [1] (strain P. aeruginosa-29) is given as “Resistant”.
Turning to `NCC[C@H](O)C(=O)N[C@@H]1C[C@H](N)[C@@H](O[C@H]2O[C@H](CN)[C@@H](O)[C@H](O)[C@H]2O)[C@H](O)[C@H]1O[C@H]1O[C@H](CO)[C@@H](O)[C@H](N)[C@H]1O` [Amikacin], in assay [1] (strain P. aeruginosa′-5), the “Drug resistance of host bacteria” value is on record as “Resistant”.
Turning to `C=CCS[S+]([O-])CC=C` (centres unmarked) [allicin], the MIC in assay [2] is 1250 µg/mL (≈ 7.7 mM); in assay [3] (Pseudomonas aeruginosa, combination experiment, phage concentration 0 pfu/mL, FIG. 4, read-out: MIC of allicin alone) it was 1250 µg/mL. Moreover, the OD600 entry in assay [3] (allicin alone 1.25 mg/mL, FIG. 4) is reported as “about 0”. The “decrease of amount when used in combination as compared to singly” value in assay [3] (allicin with phage) is reported as “three orders of magnitude”. Further, the “best combination dosage, allicin” value in assay [3] (in combination with 1×10^2 pfu/mL phage, FIG. 6) came to 1.25 µg/mL. Moreover, the “optimal concentration for combination, allicin” value in assay [3] (with 1×10^2 pfu/mL phage, FIG. 6) was 1/1000. In assay [4], the “effect of allicin on phage potency (titer)” value is given as “no negative effect”.
For the molecule `CO/N=C(\C(=O)N[C@@H]1C(=O)N2C(C(=O)[O-])=C(C[N+]3(C)CCCC3)CS[C@H]12)c1csc(N)n1` [Cefepime], the “Drug resistance of host bacteria” value in assay [1] (strain B- P. aeruginosa-029), in assay [1] (strain P. aeruginosa-2 (r74)), in assay [1] (strain P. aeruginosa-24), in assay [1] (strain P. aeruginosa-30) and in assay [1] (strain P. aeruginosa′-5) was “Resistant” in each case.
With `O=C(O)c1cn(C2CC2)c2cc(N3CCNCC3)c(F)cc2c1=O` [Ciprofloxacin], the “Drug resistance of host bacteria” value in assay [1] (strain B- P. aeruginosa-029), in assay [1] (strain B- P. aeruginosa-035), in assay [1] (strain B- P. aeruginosa-037), in assay [1] (strain B- P. aeruginosa-041), in assay [1] (strain B- P. aeruginosa-042) and in assay [1] (strain B-P. AERUGINOSA-027) was “Resistant” each time. The “Drug resistance of host bacteria” value in assay [1] (strain P. aeruginosa-25) and in assay [1] (strain P. aeruginosa-29) was “Resistant” each time.
As to `C[C@H]1[C@H](NC(=O)/C(=N\OC(C)(C)C(=O)O)c2csc(N)n2)C(=O)N1S(=O)(=O)O` [Aztreonam], the “Drug resistance of host bacteria” value in assay [1] (strain B- P. aeruginosa-029), in assay [1] (strain B- P. aeruginosa-037), in assay [1] (strain P. aeruginosa-2 (r74)), in assay [1] (strain P. aeruginosa-4), in assay [1] (strain P. aeruginosa-13) and in assay [1] (strain P. aeruginosa-14) was “Resistant” each time. For the same molecule, the “Drug resistance of host bacteria” value in assay [1] (strain P. aeruginosa-22), in assay [1] (strain P. aeruginosa-25), in assay [1] (strain P. aeruginosa-26), in assay [1] (strain P. aeruginosa-27), in assay [1] (strain P. aeruginosa-30) and in assay [1] (strain P. aeruginosa′-3) was “Resistant” throughout. The “Drug resistance of host bacteria” value in assay [1] (strain P. aeruginosa′-4), in assay [1] (strain P. aeruginosa′-5) and in assay [1] (strain P. aeruginosa′-10) was “Resistant” throughout.
For the molecule Piperacillin/Tazobactam, the “Drug resistance of host bacteria” value in assay [1] (strain B- P. aeruginosa-029), in assay [1] (strain B- P. aeruginosa-037), in assay [1] (strain P. aeruginosa-2 (r74)), in assay [1] (strain P. aeruginosa-14), in assay [1] (strain P. aeruginosa-23) and in assay [1] (strain P. aeruginosa-26) was “Resistant” each time. For the same molecule, the “Drug resistance of host bacteria” value in assay [1] (strain P. aeruginosa-30), in assay [1] (strain P. aeruginosa-32), in assay [1] (strain P. aeruginosa′-3), in assay [1] (strain P. aeruginosa′-4), in assay [1] (strain P. aeruginosa′-5) and in assay [1] (strain P. aeruginosa′-6) was “Resistant” throughout. Further, the “Drug resistance of host bacteria” value in assay [1] (strain P. aeruginosa′-15) is “Resistant”.
